Test results taken from patent US7901893B2, “NPC1L1 (NPC3) and methods of identifying ligands thereof” (Merck Sharp & Dohme Corp., priority 2004, dated 2011).

Tests used:
[1] = system: intestinal cholesterol absorption; experiment: Cholesterol absorption in mice, dual fecal isotope ratio method; assay type: in vivo, mouse
Description: Cholesterol absorption in the mice was determined by the dual fecal isotope ratio method as described by Altmann et al. (Biochim. Biophys. Acta. 1580(1): 77-93 (2002)). Mice (n—4-6/group) were fed a standard rodent chow diet and in some groups treated daily with a maximally effective dose of ezetimibe (10 mg/kg). Mice were gavaged with ^14C-cholesterol (1 μCi, 0.1 mg unlabeled cholesterol) and ^3H-sitostanol (2 μCi) in 0.1 ml corn oil. Feces were collected for 2 days and fecal ^14C-cholesterol and ^3H-sitostanol levels were determined by combustion in a Packard Oxidizer. The fraction of cholesterol absorbed, as evaluated by the fecal dual isotope technique, was similar in wild type (+/+) and heterozygous mice (+/−) fed a chow diet (heterozygous mice absorbed 46±5% and age matched wild type mice absorbed 51±3% of the dose of ^14C-cholesterol). The NPC1L1 knockout mice (−/−) absorbed 15.6±0.4% of the ^14C-cholesterol, which was similar to the wild type mice treated with a maximally effective dose of ezetimibe (16.1±0.3%), and reduced by 69% compared to wild type mice (p<0.001). In NPC1L1 knockout treated with ezetimibe at 10 mg/kg/day, cholesterol absorption was similar to that seen in the untreated knockout mice (16.2±0.6% compared to 15.6%±0.4%, respectively). […]

[2] = molecular target: rat NPC1L1 (Rattus norvegicus, UniProt Q6T3U3); experiment: Effect of ezetimibe on cholesterol uptake, rat NPC1L1 transfected CHO cells; assay type: cell-based; set-up: expressed in transfected cells; pCDNA3); settings: EZ (10 μM); for Cholesteryl Ester, dpm ± sem / Cholesteryl Ester, dpm/mg protein ± sem / Free Cholesterol, dpm ± sem / Free Cholesterol, dpm/mg protein ± sem: 4 Hour Pulse
Description: The effect of ezetimibe on the ability of CHO cells stably transfected with mouse or rat NPC1L1 or mouse SR-B1 to take up ^3H-labeled cholesterol was evaluated in pulse-chase experiments. One cDNA clone of mouse NPC1L1 (C7) and three clones of rat NPC1L1 (C7, C17 and C21) were evaluated. The ability of CHO cells stably transfected with mouse SR-B1, mouse NPC1L1 and rat NPC1L1 to take up labeled cholesterol, in the absence of ezetimibe, was also evaluated in the pulse-chase experiments. Data generated in these experiments are set forth, below, in Tables 4 and 5. Additionally, the quantity of total cholesterol taken up by transfected and untransfected CHO cells in the presence of four different unlabeled cholesterol concentrations was also evaluated.
Starve. The maintenance media (F12 HAMS, 1% Pen/Strep, 10% FCS) was removed and the cells were rinsed with serum-free HAMS media. The serum-free media was then replaced with 1 mL “starve” media (F12 HAMS, Pen/Strep, 5% lipoprotein deficient serum (LPDS). The cells were then starved overnight.
Pre-Incubation/pre-dose. Media was removed from all plates and replaced with fresh starve media and preincubated for 30 minutes. Half of the wells received media containing ezetimibe (stock soln in EtOH; final conc.=10 μM).
^3H-Cholesterol Pulse. The following was added directly to each well: • 0.5 μCi ^3H-cholesterol (˜1.1×10^6 dpm/well) in 50 μl of a mixed bile salt micelle • 4.8 mM sodium taurocholate (2.581 mg/mL) • 0.6 mM sodium oleate (0.183 mg/mL) • 0.25 mM cholesterol (0.1 mg/mL) • Dispersed in “starve” media by ultrasonic vibration • Final media cholesterol concentration=5 μg/mL
Labeled cholesterol pulse time points were 4, 12, 24 minutes and 4 hours. Triplicate wells were prepared for each treatment.
Wash. At designated times, media was aspirated and cells were washed once with Hobbs Buffer A (50 mM Tris, 0.9% NaCl, 0.2% bovine serum albumin (BSA), pH 7.4) and once with Hobbs Buffer B (50 mM Tris, 0.9% NaCl, pH 7.4 (no BSA)) at 37° C.
A. 4, 12, 24 minute time points: Cells were digested overnight with 0.2N NaOH, 2 mL/well, room temperature. One 1.5 mL aliquot was removed from each well, neutralized & counted for radioactivity by scintillation counting.
B. 4 hour time point: The digested cells were analyzed by thin-layer chromatography to determine the content of cholesterol ester in the cells.
Extracts were spotted onto TLC plates and run for 30 minutes in 2 ml hexane:isopropanol (3:2) mobile phase for 30 minutes, followed by a second run in 1 ml hexane:isopropanol (3:2) mobile phase for 15 minutes.
C. Protein determination of cell extracts. Plates containing a sample of the cell extracts were placed on orbital shaker at 120 rpm for indicated times and then extracts are pooled into 12×75 tubes. Plates were dried and NaOH (2 ml/well) added. The protein content of the samples were then determined. Two additional 50 μl aliquots from all wells were assayed for total protein by the Pierce micro BCA method. The quantity of labeled cholesterol observed in the cells was normalized to the quantity of protein in the cells.

- Cholesteryl Ester, dpm ± sem ([2]; rNPC1L1(C7)): 191 ± 54 dpm
- Cholesteryl Ester, dpm/mg protein ± sem ([2]; rNPC1L1(C7)): 1496 ± 403 dpm/mg protein
- Free Cholesterol, dpm ± sem ([2]; rNPC1L1(C7)): 70628 ± 212 dpm
- Free Cholesterol, dpm/mg protein ± sem ([2]; rNPC1L1(C7)): 556855 ± 7481 dpm/mg protein
- Cholesteryl Ester, dpm ± sem ([2]; rNPC1L1(C17)): 202 ± 10 dpm
- Cholesteryl Ester, dpm/mg protein ± sem ([2]; rNPC1L1(C17)): 1510 ± 62 dpm/mg protein
- Free Cholesterol, dpm ± sem ([2]; rNPC1L1(C17)): 71646 ± 446 dpm
- Free Cholesterol, dpm/mg protein ± sem ([2]; rNPC1L1(C17)): 536651 ± 7146 dpm/mg protein
- Cholesteryl Ester, dpm ± sem ([2]; rNPC1L1(C21)): 454 ± 33 dpm
- Cholesteryl Ester, dpm/mg protein ± sem ([2]; rNPC1L1(C21)): 3193 ± 265 dpm/mg protein
- Free Cholesterol, dpm ± sem ([2]; rNPC1L1(C21)): 69106 ± 711 dpm
- Free Cholesterol, dpm/mg protein ± sem ([2]; rNPC1L1(C21)): 485460 ± 4410 dpm/mg protein
- Total Cholesterol, dpm ± sem ([2]; 4 Min Pulse, rNPC1L1(C7)): 3268 ± 121 dpm
- Total Cholesterol, dpm/mg protein ± sem ([2]; 4 Min Pulse, rNPC1L1(C7)): 27285 ± 968 dpm/mg protein
- Total Cholesterol, dpm ± sem ([2]; 4 Min Pulse, rNPC1L1(C17)): 3676 ± 134 dpm
- Total Cholesterol, dpm/mg protein ± sem ([2]; 4 Min Pulse, rNPC1L1(C17)): 28675 ± 527 dpm/mg protein
- Total Cholesterol, dpm ± sem ([2]; 4 Min Pulse, rNPC1L1(C21)): 3769 ± 147 dpm
- Total Cholesterol, dpm/mg protein ± sem ([2]; 4 Min Pulse, rNPC1L1(C21)): 27098 ± 689 dpm/mg protein
- Total Cholesterol, dpm ± sem ([2]; 12 Min Pulse, rNPC1L1(C7)): 4664 ± 63 dpm
- Total Cholesterol, dpm/mg protein ± sem ([2]; 12 Min Pulse, rNPC1L1(C7)): 38581 ± 784 dpm/mg protein
- Total Cholesterol, dpm ± sem ([2]; 12 Min Pulse, rNPC1L1(C17)): 4579 ± 257 dpm
- Total Cholesterol, dpm/mg protein ± sem ([2]; 12 Min Pulse, rNPC1L1(C17)): 34063 ± 1619 dpm/mg protein
- Total Cholesterol, dpm ± sem ([2]; 12 Min Pulse, rNPC1L1(C21)): 4703 ± 231 dpm
- Total Cholesterol, dpm/mg protein ± sem ([2]; 12 Min Pulse, rNPC1L1(C21)): 33985 ± 1928 dpm/mg protein
- Total Cholesterol, dpm ± sem ([2]; 24 Min Pulse, rNPC1L1(C7)): 7829 ± 204 dpm
- Total Cholesterol, dpm/mg protein ± sem ([2]; 24 Min Pulse, rNPC1L1(C7)): 63482 ± 368 dpm/mg protein
- Total Cholesterol, dpm ± sem ([2]; 24 Min Pulse, rNPC1L1(C17)): 8192 ± 237 dpm
- Total Cholesterol, dpm/mg protein ± sem ([2]; 24 Min Pulse, rNPC1L1(C17)): 62279 ± 4352 dpm/mg protein
- Total Cholesterol, dpm ± sem ([2]; 24 Min Pulse, rNPC1L1(C21)): 8760 ± 293 dpm
- Total Cholesterol, dpm/mg protein ± sem ([2]; 24 Min Pulse, rNPC1L1(C21)): 66165 ± 2181 dpm/mg protein
SMILES: O=C1[C@H](CC[C@H](O)c2ccc(F)cc2)[C@@H](c2ccc(O)cc2)N1c1ccc(F)cc1 [ezetimibe]
- fraction of ^14C-cholesterol absorbed ([1]; NPC1L1 knockout mice, ezetimibe 10 mg/kg/day): 16.2±0.6%
- fraction of ^14C-cholesterol absorbed ([1]; wild type mice, ezetimibe 10 mg/kg daily): 16.1±0.3%
